# Reference: patent US20260132126A1, “IMIDAZOLE DERIVATIVES” (SANWA KAGAKU KENKYUSHO CO., LTD., priority 2022, published 2026)
# pEC50: −log10 of the molar value.
# Molecular target: T1, human α1A adrenergic receptor (Homo sapiens, UniProt P35348)
# T1 construct: host or cells: GeneBLAzer ADRA1A-NFAT-bla CHO-K1 cells
# T1 sequence (P35348 1-466): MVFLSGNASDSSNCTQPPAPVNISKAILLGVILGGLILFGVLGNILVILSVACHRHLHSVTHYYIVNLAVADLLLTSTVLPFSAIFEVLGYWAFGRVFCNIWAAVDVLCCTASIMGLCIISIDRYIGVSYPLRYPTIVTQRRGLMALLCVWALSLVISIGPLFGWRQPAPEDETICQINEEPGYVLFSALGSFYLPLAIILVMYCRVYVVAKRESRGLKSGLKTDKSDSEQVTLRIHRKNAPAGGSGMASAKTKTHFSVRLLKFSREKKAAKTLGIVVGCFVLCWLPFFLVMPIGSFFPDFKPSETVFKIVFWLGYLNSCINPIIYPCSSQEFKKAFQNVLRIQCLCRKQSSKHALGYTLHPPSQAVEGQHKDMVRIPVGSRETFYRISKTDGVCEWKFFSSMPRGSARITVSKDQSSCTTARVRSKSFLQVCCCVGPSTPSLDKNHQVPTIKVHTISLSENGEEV
# Assay: Ca2+ mobilization assay in human α1A adrenergic receptor-expressing cells
# Format: cell-based
# Set-up: Emax: dose or concentration left out as unconfirmed
# Conditions: for Emax at 10 µM: % activation at 10 μmol/L test compound, 100 μmol/L norepinephrine = 100%, well without test compound = 0%; for pEC50: CHO-K1 cells expressing human α1A adrenergic receptor, Fluo-4 fluorescence, concentration giving 50% response of Emax, 4-parameter logistic regression
# Protocol: CHO-K1 cells that highly express a human α1A adrenergic receptor (GeneBLAzer™ ADRA1A-NFAT-bla CHO-K1 Cells) were purchased from Thermo Fisher Scientific, Inc., and cultured according to the instructions.
# The cultured human α1A adrenergic receptor-expressing cells were washed with D-PBS, then replaced with a loading buffer (2 μmol/L Fluo-4/AM, 1× PowerLoad, 2.5 mmol/L Probenecid-containing DMEM (high-glucose)) and incubated at 37° C. for 60 minutes in a 5% CO2 incubator. The cells were detached using 0.05% trypsin-EDTA solution, and suspended in an assay buffer ([…], 0.054 mol/L KCl, 1.8 mmol/L CaCl2), 1 mmol/L MgSO4, 0.11 mol/L glucose, 0.01 mol/L NaH2PO4·2H2O, […], pH 7.3) to be 500,000 cells/mL.
# Test compounds were dissolved in dimethylsulfoxide, and diluted with an assay buffer containing 0.3% BSA. The final concentrations of the test compounds were set to fall within the range of 0.1 nmol/L to 10 μmol/L. As a reference compound, norepinephrine was set to have a final concentration within the range of 0.01 nmol/L to 100 μmol/L.
# On a 384-well clear bottom black plate coated with poly-D-lysine (Corning Inc.), the above-described cell-suspended solution was dispersed in 40 μL each (20,000 cells/well) and allowed to stand for 10 minutes. The plate was transferred to a fluorescent imaging plate reader (FDSS7000, Hamamatsu Photonics K.K.), and measurements were started. After 1 minute from the start of the measurements, 20 μL of the test compound solutions or norepinephrine solution (total amount: 60 μL/well) was added to each well of the plate (final concentration: 0.1% BSA, 0.1% dimethylsulfoxide), and the temporal change in fluorescence intensity of Fluo-4 was further measured for 5 minutes (Ex 480 nm/Em 540 nm).
# The normalized values (% activation) were used for subsequent analyses.
# Emax values and EC50 values were calculated by creating a concentration-response curve of the test compounds using a 4-parameter logistic regression with XLFit, Emax value being defined as % activation of test compound at the concentration of 10 μmol/L, and EC50 value being defined as the concentration in which 50% response of the Emax values is shown.
Structure (SMILES),Emax at 10 µM [%],pEC50,Emax [%]
"COc1cccnc1-c1ccccc1NCc1c[nH]cn1 [Example 28, N-((1H-imidazol-4-yl)methyl)-2-(3-methoxypyridin-2-yl)aniline]",96,8.31,
"c1ccc(-c2cncnc2)c(NCc2c[nH]cn2)c1 [Example 10, N-((1H-imidazol-4-yl)methyl)-2-(pyrimidin-5-yl)aniline]",103,8.42,
COc1c(F)cncc1-c1ccccc1OCc1c[nH]cn1 [Example 74],,9.30,96
"COc1cncc(-c2cscc2NCc2c[nH]cn2)c1 [Example 5, N-((1H-imidazol-4-yl)methyl)-4-(5-methoxypyridin-3-yl)thiophen-3-amine]",98,9.52,
"Fc1cccnc1-c1cscc1NCc1c[nH]cn1 [Example 29, N-((1H-imidazol-4-yl)methyl)-4-(3-fluoropyridin-2-yl)thiophen-3-amine]",96,8.64,
c1ccc(-c2cnccn2)c(OCc2c[nH]cn2)c1 [Example 68],,8.64,100
c1ccc(-c2ccsc2)c(SCc2c[nH]cn2)c1 [Example 82],104,8.16,
"c1ccc(-c2cscn2)c(NCc2c[nH]cn2)c1 [Example 15, N-((1H-imidazol-4-yl)methyl)-2-(thiazol-4-yl)aniline]",98,10.00,
"c1ccc(-c2cscn2)c(OCc2c[nH]cn2)c1 [Example 67, 4-(2-((1H-Imidazol-4-yl)methoxy)phenyl)thiazole]",103,8.68,
Cc1ncncc1-c1ccc(F)cc1OCc1c[nH]cn1 [Example 64],99,8.28,
Cc1ncncc1-c1ccccc1OCc1c[nH]cn1 [Example 76],,8.48,98
"c1ccc(-c2cncs2)c(NCc2c[nH]cn2)c1 [Example 11, N-((1H-imidazol-4-yl)methyl)-2-(thiazol-5-yl)aniline]",104,8.74,
c1ccc(-c2cnccc2C2CC2)c(OCc2c[nH]cn2)c1 [Example 73],,9.15,89
COc1ccncc1-c1ccccc1OCc1c[nH]cn1 [Example 54],98,8.80,
c1csc(-c2cscc2NCc2c[nH]cn2)c1 [Example 1],103,9.10,
Cc1ccc(-c2cn[nH]c2)c(OCc2c[nH]cn2)c1 [Example 55],101,9.22,
"COc1n[nH]cc1-c1ccc(C)cc1NCc1c[nH]cn1 [Example 33, N-((1H-Imidazol-4-yl)methyl)-2-(3-methoxy-1H-pyrazol-4-yl)-5-methylaniline]",97,8.41,
"c1nc(CNc2cscc2-c2ccoc2)c[nH]1 [Example 41, N-((1H-Imidazol-4-yl)methyl)-4-(furan-3-yl)thiophen-3-amine]",92,8.47,
"COc1ccncc1-c1cscc1NCc1c[nH]cn1 [Example 4, N-((1H-imidazol-4-yl)methyl)-4-(4-methoxypyridin-3-yl)thiophen-3-amine]",93,9.22,
Cc1n[nH]cc1-c1ccc(F)cc1OCc1c[nH]cn1 [Example 58],97,9.00,
"c1cncc(-c2sccc2NCc2c[nH]cn2)c1 [Example 7, N-((1H-imidazol-4-yl)methyl)-2-(pyridin-3-yl)thiophen-3-amine]",92,8.35,
COc1ncncc1-c1ccccc1OCc1c[nH]cn1 [Example 75],,9.70,95
"COc1cccc(-c2ccccc2NC(C)c2c[nH]cn2)n1 (centres unmarked) [Example 37, N-(1-(1H-imidazol-4-yl)ethyl)-2-(6-methoxypyridin-2-yl)aniline]",,8.68,109

Structure (SMILES),Emax at 10 µM [%],pEC50,Emax [%]
Cc1ccc(-c2cncnc2C)c(OCc2c[nH]cn2)c1 [Example 65],98,8.17,
Cc1ccc(-c2c[nH]nc2C#N)c(OCc2c[nH]cn2)c1 [Example 56],105,9.10,
"COc1cccnc1-c1cscc1NCc1c[nH]cn1 [Example 17, N-((1H-imidazol-4-yl)methyl)-4-(3-methoxypyridin-2-yl)thiophen-3-amine]",90,8.70,
c1coc(-c2ccccc2OCc2c[nH]cn2)c1 [Example 45],107,8.03,
c1ccc(-c2cn[nH]c2)c(SCc2c[nH]cn2)c1 [Example 81],106,8.05,
"COc1ncncc1-c1cscc1NCc1c[nH]cn1 [Example 23, N-((1H-imidazol-4-yl)methyl)-4-(4-methoxypyrimidin-5-yl)thiophen-3-amine]",95,10.00,
"c1nc(CNc2cscc2-c2cscn2)c[nH]1 [Example 14, N-((1H-imidazol-4-yl)methyl)-4-(thiazol-4-yl)thiophen-3-amine]",88,8.66,
c1ccc(-c2cncs2)c(OCc2c[nH]cn2)c1 [Example 71],,8.72,103
"c1ccc(-c2ccsc2)c(OCc2c[nH]cn2)c1 [Example 44, 4-((2-(Thiophen-3-yl)phenoxy)methyl)-1H-imidazole]",108,8.66,
c1ccc(-c2nccs2)c(OCc2c[nH]cn2)c1 [Example 70],,8.62,93
Cc1c(F)cncc1-c1ccccc1OCc1c[nH]cn1 [Example 60],90,8.49,
"Cc1ncsc1-c1cscc1NCc1c[nH]cn1 [Example 18, N-((1H-imidazol-4-yl)methyl)-4-(4-methylthiazol-5-yl)thiophen-3-amine]",88,8.28,
"Cc1cccnc1-c1cscc1NCc1c[nH]cn1 [Example 16, N-((1H-imidazol-4-yl)methyl)-4-(3-methylpyridin-2-yl)thiophen-3-amine]",88,8.02,
Cc1n[nH]cc1-c1ccccc1OCc1c[nH]cn1 [Example 49],104,8.37,
"c1cc(-c2cscc2NCc2c[nH]cn2)[nH]n1 [Example 8, N-((1H-imidazol-4-yl)methyl)-4-(1H-pyrazol-5-yl)thiophen-3-amine]",96,8.92,
COc1cncc(-c2ccccc2OCc2c[nH]cn2)n1 [Example 77],,9.22,92
"c1ccc(-c2ccccc2NCc2c[nH]cn2)nc1 [Example 27, N-((1H-imidazol-4-yl)methyl)-2-(pyridin-2-yl)aniline]",100,8.64,
"c1ccc(-c2cn[nH]c2)c(OCc2c[nH]cn2)c1 [Example 47, 4-(2-((1H-imidazol-4-yl)methoxy)phenyl)-1H-pyrazole]",95,8.00,
"c1cncc(-c2ccccc2SCc2c[nH]cn2)c1 [Example 80, 3-(2-(((1H-Imidazol-4-yl)methyl)thio)phenyl)pyridine]",101,8.47,
c1cncc(-c2ccccc2OCc2c[nH]cn2)c1 [Example 48],104,8.52,
COc1ncc(F)cc1-c1ccccc1OCc1c[nH]cn1 [Example 61],90,8.35,
c1csc(-c2ccccc2OCc2c[nH]cn2)c1 [Example 46],104,8.32,
"COc1cccc(-c2ccccc2NC(C)c2c[nH]cn2)n1 (single isomer, unassigned; (+)) [Example 39, (+)-N-(1-(1H-Imidazol-4-yl)ethyl)-2-(6-methoxypyridin-2-yl)aniline]",94,8.72,
